# From patent US12252457B2, “Compositions and methods for reducing tactile dysfunction, anxiety, and social impairment” (President and Fellows of Harvard College, priority 2018, dated 2025)
# “Also recorded” adds a separate entry of the source.
# Legend:
# [1] = Bio-distribution of isoguvacine by LC-MS; format: in vivo, mouse
# Procedure: FIGS. 19A-19N show acute administration of the peripherally-restricted GABAA receptor agonist isoguvacine improves tactile hypersensitivity in five genetic and one environmental model of ASD. […] Two-way ANOVA with post-hoc Sidak's test, *, p<0.05. FIG. 19B: Response to a light air puff stimulus alone in mice following i.p. administration of either saline or 2 mg/kg midazolam treatment. Responses are expressed as percent of startle response to a 125 dB noise. Two-way ANOVA with post-hoc Sidak's test, *, p<0.05. FIG. 19C: Magnitude of startle response to a 125 dB noise in mice following i.p. administration of either saline or 2 mg/kg midazolam treatment. Responses are expressed as percent of startle response to a 125 dB noise. Two-way ANOVA with post-hoc Sidak's test, *, p<0.05. FIG. 19D: Magnitude of startle response to a 125 dB noise in mice following i.p. administration of saline, midazolam (2 mg/kg) or a peripherally-restricted GABAA receptor agonist, isoguvacine (2 mg/kg). Responses are expressed as percent of startle response to a 125 dB noise. Two-way ANOVA with post-hoc Sidak's test, *, p<0.05. FIGS. 19E-19G: Liquid chromatography mass spectrometry (LC-MS) quantified isoguvacine concentrations in cerebrospinal fluid (CSF) (FIG. 19E), blood (FIG. 19F) or liver (FIG. 19G) samples of mice treated with: i.p. saline, i.p. isoguvacine (“Iso.”, 20 mg/kg, samples collected 1, 3 or 24 hours post-injection), intracerebral injection isoguvacine (20 mg/kg, 1 hour post-injection), i.p. diazepam (“DZ”, 20 mg/kg, 1 hour post injection) or intracerebral injection diazepam (20 mg/kg, 1 hour post injection). FIG. 19H: Normalized peak chloride flux through α1β3γ2- and α2β3γ2-containing GABAA receptors in response to isoguvacine application. […] FIGS. 19I-19K: GABAA receptor subunit RNA expression levels across peripheral somatosensory neuron subtypes, for the alpha (FIG. 19I), beta (FIG. 19J), and gamma (FIG. 19K) subunit types. […] Two-way ANOVA with post-hoc Sidak's test, *, p<0.05. FIG. 19M: Response to a light air puff stimulus alone in mice following i.p. administration of either saline or 2 mg/kg isoguvacine treatment. Responses are expressed as percent of startle response to a 125 dB noise. Two-way ANOVA with post-hoc Sidak's test, *, p<0.05. FIG. 19N: Magnitude of startle response to a 125 dB noise in mice following i.p. administration of either saline or 2 mg/kg isoguvacine treatment. Responses are expressed as percent of startle response to a 125 dB noise. […]
# FIGS. 28A-28U are related to FIGS. 21A-210. FIG. 28A: Liquid chromatography mass spectrometry (LC-MS) quantified isoguvacine concentrations in brain homogenate samples of mice treated with isoguvacine (2 mg/kg, i.p.) from P1-42. […] Responses are expressed as percent of startle response to a 125 dB startle noise. […]
# [2] = tested on: genetic and environmental mouse models of ASD; experiment: Tactile PPI, air puff response and startle amplitude after acute midazolam or isoguvacine in ASD mouse models; format: in vivo
# Procedure: FIGS. 19A-19N show acute administration of the peripherally-restricted GABAA receptor agonist isoguvacine improves tactile hypersensitivity in five genetic and one environmental model of ASD. […] Two-way ANOVA with post-hoc Sidak's test, *, p<0.05. FIG. 19B: Response to a light air puff stimulus alone in mice following i.p. administration of either saline or 2 mg/kg midazolam treatment. Responses are expressed as percent of startle response to a 125 dB noise. Two-way ANOVA with post-hoc Sidak's test, *, p<0.05. FIG. 19C: Magnitude of startle response to a 125 dB noise in mice following i.p. administration of either saline or 2 mg/kg midazolam treatment. Responses are expressed as percent of startle response to a 125 dB noise. Two-way ANOVA with post-hoc Sidak's test, *, p<0.05. FIG. 19D: Magnitude of startle response to a 125 dB noise in mice following i.p. administration of saline, midazolam (2 mg/kg) or a peripherally-restricted GABAA receptor agonist, isoguvacine (2 mg/kg). Responses are expressed as percent of startle response to a 125 dB noise. Two-way ANOVA with post-hoc Sidak's test, *, p<0.05. FIGS. 19E-19G: Liquid chromatography mass spectrometry (LC-MS) quantified isoguvacine concentrations in cerebrospinal fluid (CSF) (FIG. 19E), blood (FIG. 19F) or liver (FIG. 19G) samples of mice treated with: i.p. saline, i.p. isoguvacine (“Iso.”, 20 mg/kg, samples collected 1, 3 or 24 hours post-injection), intracerebral injection isoguvacine (20 mg/kg, 1 hour post-injection), i.p. diazepam (“DZ”, 20 mg/kg, 1 hour post injection) or intracerebral injection diazepam (20 mg/kg, 1 hour post injection). FIG. 19H: Normalized peak chloride flux through α1β3γ2- and α2β3γ2-containing GABAA receptors in response to isoguvacine application. […] FIGS. 19I-19K: GABAA receptor subunit RNA expression levels across peripheral somatosensory neuron subtypes, for the alpha (FIG. 19I), beta (FIG. 19J), and gamma (FIG. 19K) subunit types. […] Two-way ANOVA with post-hoc Sidak's test, *, p<0.05. FIG. 19M: Response to a light air puff stimulus alone in mice following i.p. administration of either saline or 2 mg/kg isoguvacine treatment. Responses are expressed as percent of startle response to a 125 dB noise. Two-way ANOVA with post-hoc Sidak's test, *, p<0.05. FIG. 19N: Magnitude of startle response to a 125 dB noise in mice following i.p. administration of either saline or 2 mg/kg isoguvacine treatment. Responses are expressed as percent of startle response to a 125 dB noise. Two-way ANOVA with post-hoc Sidak's test, *, p<0.05.
# Results of the GABAA receptor restoration experiments raised the possibility that pharmacological treatment with a GABAA receptor agonist may improve tactile reactivity in Mecp2 mutant mice. It was therefore tested whether benzodiazepines, which are positive allosteric modulators (PAMs) of GABAA receptors, would attenuate hairy skin hypersensitivity in Mecp2 mutant mice. Advillin^Cre; Mecp2^f/y mutant mice and their control littermates were administered either vehicle alone or the benzodiazepine midazolam (2 mg/kg, i.p.) in a pseudorandomized manner, and then subjected to tactile PPI. On the following day, treatment regimens were reversed, and tactile PPI was repeated.
# While traditional blood-brain barrier (BBB) penetrating benzodiazepines and non-benzodiazepine GABAA receptor PAMs are useful for treating some ASD-related symptoms in patients, including acute anxiety, significant adverse effects including sedation and addictive potential are common (Gudex, 1991). Furthermore, long-term benzodiazepine use is linked to cognitive impairment across multiple domains, including short-term verbal memory and attention (Golombok et al., 1988; Tata et al., 1994), leading to general reluctance within the medical community for prescribing benzodiazepines and other GABAA receptor PAMs to young children (Howes et al., 2018). […]
# [3] = after six-week treatment, 2 mg/kg i.p. daily starting at P0
smiles,measurement,setting,value
"O=C(O)C1=CCNCC1 [Isoguvacine, isoguvacine]",drug in blood and liver,[1]; 20 mg/kg i.p.,detected in the blood and liver
same,drug in brain or cerebrospinal fluid,[1]; 20 mg/kg i.p.,undetectable in the brain or cerebrospinal fluid
same,drug in brain or spinal cord,[1]; [3],not the brain or spinal cord
same,drug in liver,[1]; [3],detected in liver
same,hairy skin sensitivity (tactile PPI),"[2]; Advillin^Cre, Gabrb3^f/f mice (homozygous deletion), 2 mg/kg i.p.",no reduction in hairy skin sensitivity
same,tactile hypersensitivity (tactile PPI performance and responsivity to air puff),"[2]; Advillin^Cre, Mecp2^f/y and Advillin^Cre, Gabrb3^f/+ mutant mice, acute 2 mg/kg i.p.",significantly reduced tactile hypersensitivity; also recorded: improved tactile hypersensitivity
same,hairy skin hypersensitivity,"[2]; Shank3, Fmr1, and Cntnap2 mutant mice, acute 2 mg/kg i.p.",attenuated hairy skin hypersensitivity
same,hairy skin hypersensitivity,[2]; mice exposed to polyinosinic:polycytidylic acid at E12.5 (maternal immune activation model),improvement in hairy skin hypersensitivity
